Source: ChEMBL document CHEMBL3045770, “Design and synthesis of some thieno[2,3-c]pyridazine derivatives of expected anticancer activity” (2013)

What was measured:
Type in all cases: functional
NCI-H460 = assay: Cytotoxicity against Homo sapiens (human) NCI-H460 assessed as cell growth at 10 uM after 48 hr by SRB assay relative to control; conditions: NCI-H460, 48 h, read-out: Activity
HCT-116 = assay: Cytotoxicity against Homo sapiens (human) HCT116 assessed as cell growth at 10 uM after 48 hr by SRB assay relative to control; conditions: HCT-116, 48 h, read-out: Activity
MCF7 = assay: Cytotoxicity against Homo sapiens (human) MCF7 assessed as cell growth at 10 uM after 48 hr by SRB assay relative to control; conditions: MCF7, 48 h, read-out: Activity
LOX IMVI = assay: Cytotoxicity against Homo sapiens (human) LOXIMVI assessed as cell growth at 10 uM after 48 hr by SRB assay relative to control; conditions: read-out: Activity
MDA-MB-435 = assay: Cytotoxicity against Homo sapiens (human) MDA-MB-435 assessed as cell growth at 10 uM after 48 hr by SRB assay relative to control; conditions: MDA-MB-435, 48 h, read-out: Activity
EKVX = assay: Cytotoxicity against Homo sapiens (human) EKVX assessed as cell growth at 10 uM after 48 hr by SRB assay relative to control; conditions: read-out: Activity
T47D = assay: Cytotoxicity against Homo sapiens (human) T47D assessed as cell growth at 10 uM after 48 hr by SRB assay relative to control; conditions: read-out: Activity
BT-549 = assay: Cytotoxicity against Homo sapiens (human) BT549 assessed as cell growth at 10 uM after 48 hr by SRB assay relative to control; conditions: BT-549, 48 h, read-out: Activity
SK-MEL-28 = assay: Cytotoxicity against Homo sapiens (human) SK-MEL-28 assessed as cell growth at 10 uM after 48 hr by SRB assay relative to control; conditions: SK-MEL-28, 48 h, read-out: Activity
SK-MEL-5 = assay: Cytotoxicity against Homo sapiens (human) SK-MEL-5 assessed as cell growth at 10 uM after 48 hr by SRB assay relative to control; conditions: SK-MEL-5, 48 h, read-out: Activity
HL-60(TB) = assay: Cytotoxicity against Homo sapiens (human) HL-60(TB) assessed as cell growth at 10 uM after 48 hr by SRB assay relative to control; conditions: HL-60, 48 h, read-out: Activity
COLO 205 = assay: Cytotoxicity against Homo sapiens (human) COLO205 assessed as cell growth at 10 uM after 48 hr by SRB assay relative to control; conditions: COLO 205, 48 h, read-out: Activity
TK-10 = assay: Cytotoxicity against Homo sapiens (human) TK10 assessed as cell growth at 10 uM after 48 hr by SRB assay relative to control; conditions: TK-10, 48 h, read-out: Activity
DU-145 = assay: Cytotoxicity against Homo sapiens (human) DU145 assessed as cell growth at 10 uM after 48 hr by SRB assay relative to control; conditions: DU-145, 48 h, read-out: Activity
OVCAR-5 = assay: Cytotoxicity against Homo sapiens (human) OVCAR5 assessed as cell growth at 10 uM after 48 hr by SRB assay relative to control; conditions: OVCAR-5, 48 h, read-out: Activity
RPMI-8226 = assay: Cytotoxicity against Homo sapiens (human) RPMI8226 assessed as cell growth at 10 uM after 48 hr by SRB assay relative to control; conditions: RPMI-8226, 48 h, read-out: Activity
SR = assay: Cytotoxicity against Homo sapiens (human) SR assessed as cell growth at 10 uM after 48 hr by SRB assay relative to control; conditions: read-out: Activity
SW-620 = assay: Cytotoxicity against Homo sapiens (human) SW620 assessed as cell growth at 10 uM after 48 hr by SRB assay relative to control; conditions: SW-620, 48 h, read-out: Activity
UACC-62 = assay: Cytotoxicity against Homo sapiens (human) UACC62 assessed as cell growth at 10 uM after 48 hr by SRB assay relative to control; conditions: UACC-62, 48 h, read-out: Activity
OVCAR-8 = assay: Cytotoxicity against Homo sapiens (human) OVCAR8 assessed as cell growth at 10 uM after 48 hr by SRB assay relative to control; conditions: OVCAR-8, 48 h, read-out: Activity
CCRF-CEM = assay: Cytotoxicity against Homo sapiens (human) CCRF-CEM assessed as cell growth at 10 uM after 48 hr by SRB assay relative to control; conditions: read-out: Activity
M14 = assay: Cytotoxicity against Homo sapiens (human) M14 assessed as cell growth at 10 uM after 48 hr by SRB assay relative to control; conditions: M14, 48 h, read-out: Activity
SNB-19 = assay: Cytotoxicity against Homo sapiens (human) SNB19 assessed as cell growth at 10 uM after 48 hr by SRB assay relative to control; conditions: SNB-19, 48 h, read-out: Activity
[1] = Cytotoxicity against Homo sapiens (human) NCI-ADR-RES assessed as cell growth at 10 uM after 48 hr by SRB assay relative to control; conditions: read-out: Activity
SNB-75 = assay: Cytotoxicity against Homo sapiens (human) SNB75 assessed as cell growth at 10 uM after 48 hr by SRB assay relative to control; conditions: SNB-75, 48 h, read-out: Activity
MDA-MB-468 = assay: Cytotoxicity against Homo sapiens (human) MDA-MB-468 assessed as cell growth at 10 uM after 48 hr by SRB assay relative to control; conditions: MDA-MB-468, 48 h, read-out: Activity
CAKI-1 = assay: Cytotoxicity against Homo sapiens (human) Caki1 assessed as cell growth at 10 uM after 48 hr by SRB assay relative to control; conditions: CAKI-1, 48 h, read-out: Activity
SN12C = assay: Cytotoxicity against Homo sapiens (human) SN12C assessed as cell growth at 10 uM after 48 hr by SRB assay relative to control; conditions: read-out: Activity
RXF 393 = assay: Cytotoxicity against Homo sapiens (human) RXF393 assessed as cell growth at 10 uM after 48 hr by SRB assay relative to control; conditions: RXF 393, 48 h, read-out: Activity
786-0 = assay: Cytotoxicity against Homo sapiens (human) 786-0 assessed as cell growth at 10 uM after 48 hr by SRB assay relative to control; conditions: 786-0, 48 h, read-out: Activity
NCI-H226 = assay: Cytotoxicity against Homo sapiens (human) NCI-H226 assessed as cell growth at 10 uM after 48 hr by SRB assay relative to control; conditions: NCI-H226, 48 h, read-out: Activity
HCC 2998 = assay: Cytotoxicity against Homo sapiens (human) HCC2998 assessed as cell growth at 10 uM after 48 hr by SRB assay relative to control; conditions: HCC 2998, 48 h, read-out: Activity

Row | SMILES | growth at 10 µM (NCI-H460) [%] | growth at 10 µM (HCT-116) [%] | growth at 10 µM (MCF7) [%] | growth at 10 µM (LOX IMVI) [%] | growth at 10 µM (MDA-MB-435) [%] | growth at 10 µM (EKVX) [%] | growth at 10 µM (T47D) [%] | growth at 10 µM (BT-549) [%] | growth at 10 µM (SK-MEL-28) [%] | growth at 10 µM (SK-MEL-5) [%] | growth at 10 µM (HL-60(TB)) [%] | growth at 10 µM (COLO 205) [%] | growth at 10 µM (TK-10) [%] | growth at 10 µM (DU-145) [%] | growth at 10 µM (OVCAR-5) [%] | growth at 10 µM (RPMI-8226) [%] | growth at 10 µM (SR) [%] | growth at 10 µM (SW-620) [%] | growth at 10 µM (UACC-62) [%] | growth at 10 µM (OVCAR-8) [%] | other results
1 | CNc1nnc(-c2sc3nnc(-c4ccccc4)c(-c4ccccc4)c3c2O)s1 | 106 | 102 | 88.7 | 103 | 103 | 112 | 97.6 | 101 | 111 | 104 | 107 | 131 | 108 | 135 | 96.5 | 113 | 78.2 | 105 | 97.5 | 104 | growth at 10 µM (CCRF-CEM): 110%; growth at 10 µM (M14): 107%; growth at 10 µM (SNB-19): 105%; growth at 10 µM [1]: 105%; growth at 10 µM (SNB-75): 87.9%; growth at 10 µM (MDA-MB-468): 92.6%; growth at 10 µM (CAKI-1): 72%; growth at 10 µM (SN12C): 94.2%; growth at 10 µM (RXF 393): 103%; growth at 10 µM (786-0): 108%; growth at 10 µM (NCI-H226): 106%; growth at 10 µM (HCC 2998): 98.4%
2 | CC(=O)Oc1c(C2=NN(C(C)=O)C(c3ccc(F)cc3)O2)sc2nnc(-c3ccccc3)c(-c3ccccc3)c12 (configuration not stated) | 101 | 80.5 | 73.7 | 99 | 79.6 | 113 | 90 | 65.3 | 82.1 | 88.2 | 83.8 | 117 | 94.1 | 114 | 95.3 | 71.3 | 79.3 | 97.4 | 57.5 | 101 | growth at 10 µM (CCRF-CEM): 39.1%; growth at 10 µM (M14): 102%; growth at 10 µM (SNB-19): 82.6%; growth at 10 µM [1]: 85.3%; growth at 10 µM (SNB-75): 78.1%; growth at 10 µM (MDA-MB-468): 84%; growth at 10 µM (SN12C): 80.2%; growth at 10 µM (RXF 393): 88%; growth at 10 µM (786-0): 94.7%; growth at 10 µM (NCI-H226): 92.4%; growth at 10 µM (HCC 2998): 82.8%
3 | Oc1c(-c2nnc(SCc3ccccc3)o2)sc2nnc(-c3ccccc3)c(-c3ccccc3)c12 | 111 | 83.3 | 82.2 | 84 | 99.4 | 122 | 104 | 107 | 98.9 | 99.7 | 69.8 | 122 | 92.9 | 112 | 98.8 | 92.9 | 106 | 109 | 78.6 | 104 | growth at 10 µM (CCRF-CEM): 66.8%; growth at 10 µM (M14): 108%; growth at 10 µM (SNB-19): 103%; growth at 10 µM [1]: 93.5%; growth at 10 µM (SNB-75): 87.8%; growth at 10 µM (MDA-MB-468): 101%; growth at 10 µM (CAKI-1): 114%; growth at 10 µM (SN12C): 99.5%; growth at 10 µM (RXF 393): 90%; growth at 10 µM (786-0): 105%; growth at 10 µM (NCI-H226): 101%; growth at 10 µM (HCC 2998): 96.5%
4 | Oc1c(-c2nnc(-c3ccccc3)o2)sc2nnc(-c3ccccc3)c(-c3ccccc3)c12 | 39.8 | 47.4 | 58 | 65.7 | 78.4 | 94.1 | 81.1 | 74.9 | 85.2 | 71.2 | 83.2 | 102 | 90.6 | 106 | 106 | 64.8 | 46.8 | 64.4 | 51.1 | 66.8 | growth at 10 µM (CCRF-CEM): 47.7%; growth at 10 µM (M14): 69.6%; growth at 10 µM (SNB-19): 57.2%; growth at 10 µM [1]: 18.8%; growth at 10 µM (SNB-75): 84.4%; growth at 10 µM (MDA-MB-468): 64.7%; growth at 10 µM (CAKI-1): 29.1%; growth at 10 µM (SN12C): 61.4%; growth at 10 µM (RXF 393): 85.6%; growth at 10 µM (786-0): 79.9%; growth at 10 µM (NCI-H226): 85%; growth at 10 µM (HCC 2998): 70.4%
